Key:
Mus musculus [1] = assay: Nootropic effect in Albino mouse assessed as decrease in transfer latency at 75 mg/kg, po after 24 hrs by elevated plus maze test; type: functional; parameters: scale not given: the % may be the effect or the level left
[2] = Partition coefficient, log P of the compound; type: physicochemical; settings: octanol/water
Mus musculus [3] = assay: Nootropic effect in Albino mouse assessed as decrease in transfer latency at 200 mg/kg, ip after 24 hrs by elevated plus maze test; type: functional; parameters: scale not given: the % may be the effect or the level left; settings: route intraperitoneal

O=[N+]([O-])c1ccc(C2=[N+]([O-])C(c3ccccc3)N(C3CCCCC3)C2)cc1 (centres undefined)
Activity (Mus musculus [1]): 51.6% | logP [2]: 2.41

CN(C)c1ccc(C2N(Cc3ccccc3)CC(c3ccc([N+](=O)[O-])cc3)=[N+]2[O-])cc1 (centres undefined)
Activity (Mus musculus [1]): 10.8% | logP [2]: 2.02

COc1ccc(N2CC(c3ccc([N+](=O)[O-])cc3)=[N+]([O-])C2c2ccc(N(C)C)cc2)cc1 (centres undefined)
Activity (Mus musculus [1]): 40.4% | logP [2]: 2.32

O=[N+]([O-])c1ccc(C2=[N+]([O-])C(c3ccccc3)N(c3ccccc3)C2)cc1 (centres undefined)
Activity (Mus musculus [1]): 36.4% | logP [2]: 2.45

NC(=O)CN1CCCC1=O [PIRACETAM]
Activity (Mus musculus [3]): 51.3%

Reference: ChEMBL document CHEMBL1139769, “PASS-predicted design, synthesis and biological evaluation of cyclic nitrones as nootropics” (Bioorg Med Chem Lett, 2007)
